Measurements from PubChem BioAssay (NCI).
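Results reflect a 48-hour exposure of cells in 96-well plates to compound at five concentrations. TGI is the concentration that stops growth completely.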

Assays:
Assay in all cases: growth of human tumour cells (NCI), 48 h
XF 498 CNS = test system: XF 498 CNS
K-562 leukemia = test system: K-562 leukemia
NCI-H23 lung = test system: NCI-H23 lung
COLO 205 colon = test system: COLO 205 colon
OVCAR-4 ovarian = test system: OVCAR-4 ovarian
HT29 colon = test system: HT29 colon
DLD-1 colon = test system: DLD-1 colon
KM20L2 colon = test system: KM20L2 colon
HL-60(TB) leukemia = test system: HL-60(TB) leukemia
ACHN renal = test system: ACHN renal
U251 CNS = test system: U251 CNS
DMS 114 small cell lung = test system: DMS 114 small cell lung
SR leukemia = test system: SR leukemia
SF-295 CNS = test system: SF-295 CNS
UO-31 renal = test system: UO-31 renal
A498 renal = test system: A498 renal
HCT-15 colon = test system: HCT-15 colon
UACC-62 melanoma = test system: UACC-62 melanoma
SK-MEL-5 melanoma = test system: SK-MEL-5 melanoma
MOLT-4 leukemia = test system: MOLT-4 leukemia
CCRF-CEM leukemia = test system: CCRF-CEM leukemia
SW-620 colon = test system: SW-620 colon
LOX IMVI melanoma = test system: LOX IMVI melanoma
NCI-H226 lung = test system: NCI-H226 lung
HOP-18 NSCLC = test system: HOP-18 NSCLC
NCI-H522 lung = test system: NCI-H522 lung
TK-10 renal = test system: TK-10 renal
OVCAR-8 ovarian = test system: OVCAR-8 ovarian
CAKI-1 renal = test system: CAKI-1 renal
EKVX NSCLC = test system: EKVX NSCLC
SNB-19 CNS = test system: SNB-19 CNS
HOP-92 NSCLC = test system: HOP-92 NSCLC
MALME-3M melanoma = test system: MALME-3M melanoma
SNB-78 CNS = test system: SNB-78 CNS
SK-OV-3 ovarian = test system: SK-OV-3 ovarian
786-0 renal = test system: 786-0 renal
OVCAR-5 ovarian = test system: OVCAR-5 ovarian
SF-539 CNS = test system: SF-539 CNS
M19-MEL melanoma = test system: M19-MEL melanoma
NCI-H460 lung = test system: NCI-H460 lung
SF-268 CNS = test system: SF-268 CNS
RPMI-8226 leukemia = test system: RPMI-8226 leukemia
DMS 273 small cell lung = test system: DMS 273 small cell lung
KM12 colon = test system: KM12 colon
A549 NSCLC = test system: A549 NSCLC
SK-MEL-28 melanoma = test system: SK-MEL-28 melanoma
SN12C renal = test system: SN12C renal
UACC-257 melanoma = test system: UACC-257 melanoma
M14 melanoma = test system: M14 melanoma
SNB-75 CNS = test system: SNB-75 CNS
IGROV1 ovarian = test system: IGROV1 ovarian
HCT-116 colon = test system: HCT-116 colon
HCC-2998 colon = test system: HCC-2998 colon
OVCAR-3 ovarian = test system: OVCAR-3 ovarian
SK-MEL-2 melanoma = test system: SK-MEL-2 melanoma
HOP-62 NSCLC = test system: HOP-62 NSCLC
LXFL 529 NSCLC = test system: LXFL 529 NSCLC
RXF 393 renal = test system: RXF 393 renal

## c1ccc2cc(-c3cc4ccccc4s3)ccc2c1
XF 498 CNS
  TGI: > 100 µM
K-562 leukemia
  TGI: > 100 µM
NCI-H23 lung
  TGI: > 100 µM
COLO 205 colon
  TGI: > 100 µM
OVCAR-4 ovarian
  TGI: > 100 µM
HT29 colon
  TGI: > 100 µM
DLD-1 colon
  TGI: > 100 µM
KM20L2 colon
  TGI: > 100 µM
HL-60(TB) leukemia
  TGI: > 100 µM
ACHN renal
  TGI: > 100 µM
U251 CNS
  TGI: > 100 µM
DMS 114 small cell lung
  TGI: > 100 µM
SR leukemia
  TGI: > 100 µM
SF-295 CNS
  TGI: > 100 µM
UO-31 renal
  TGI: > 100 µM
A498 renal
  TGI: > 100 µM
HCT-15 colon
  TGI: > 100 µM
UACC-62 melanoma
  TGI: > 100 µM
SK-MEL-5 melanoma
  TGI: > 100 µM
MOLT-4 leukemia
  TGI: > 100 µM
CCRF-CEM leukemia
  TGI: > 100 µM
SW-620 colon
  TGI: > 100 µM
LOX IMVI melanoma
  TGI: > 100 µM
NCI-H226 lung
  TGI: > 100 µM
HOP-18 NSCLC
  TGI: > 100 µM
NCI-H522 lung
  TGI: > 100 µM
TK-10 renal
  TGI: > 100 µM
OVCAR-8 ovarian
  TGI: > 100 µM
CAKI-1 renal
  TGI: > 100 µM
EKVX NSCLC
  TGI: > 100 µM
SNB-19 CNS
  TGI: > 100 µM
HOP-92 NSCLC
  TGI: > 100 µM
MALME-3M melanoma
  TGI: > 100 µM
SNB-78 CNS
  TGI: > 100 µM
SK-OV-3 ovarian
  TGI: > 100 µM
786-0 renal
  TGI: > 100 µM
OVCAR-5 ovarian
  TGI: > 100 µM
SF-539 CNS
  TGI: > 100 µM
M19-MEL melanoma
  TGI: > 100 µM
NCI-H460 lung
  TGI: > 100 µM
SF-268 CNS
  TGI: > 100 µM
RPMI-8226 leukemia
  TGI: > 100 µM
DMS 273 small cell lung
  TGI: > 100 µM
KM12 colon
  TGI: > 100 µM
A549 NSCLC
  TGI: > 100 µM
SK-MEL-28 melanoma
  TGI: > 100 µM
SN12C renal
  TGI: > 100 µM
UACC-257 melanoma
  TGI: > 100 µM
M14 melanoma
  TGI: > 100 µM
SNB-75 CNS
  TGI: 93.7 µM
IGROV1 ovarian
  TGI: > 100 µM
HCT-116 colon
  TGI: > 100 µM
HCC-2998 colon
  TGI: > 100 µM
OVCAR-3 ovarian
  TGI: > 100 µM
SK-MEL-2 melanoma
  TGI: > 100 µM
HOP-62 NSCLC
  TGI: > 100 µM

## Cc1c2n(c(=O)[nH]c1=O)C1OC(CO)C(O2)C1O (stereo not drawn)
K-562 leukemia
  TGI: > 100 µM
NCI-H23 lung
  TGI: > 100 µM
COLO 205 colon
  TGI: > 100 µM
OVCAR-4 ovarian
  TGI: > 100 µM
HT29 colon
  TGI: > 100 µM
DLD-1 colon
  TGI: > 100 µM
KM20L2 colon
  TGI: > 100 µM
HL-60(TB) leukemia
  TGI: > 100 µM
ACHN renal
  TGI: > 100 µM
U251 CNS
  TGI: > 100 µM
DMS 114 small cell lung
  TGI: > 100 µM
SR leukemia
  TGI: > 100 µM
SF-295 CNS
  TGI: > 100 µM
UO-31 renal
  TGI: > 100 µM
A498 renal
  TGI: > 100 µM
LXFL 529 NSCLC
  TGI: > 100 µM
HCT-15 colon
  TGI: > 100 µM
UACC-62 melanoma
  TGI: > 100 µM
SK-MEL-5 melanoma
  TGI: > 100 µM
MOLT-4 leukemia
  TGI: > 100 µM
CCRF-CEM leukemia
  TGI: > 100 µM
SW-620 colon
  TGI: > 100 µM
LOX IMVI melanoma
  TGI: > 100 µM
NCI-H226 lung
  TGI: > 100 µM
NCI-H522 lung
  TGI: > 100 µM
TK-10 renal
  TGI: > 100 µM
RXF 393 renal
  TGI: > 100 µM
OVCAR-8 ovarian
  TGI: > 100 µM
CAKI-1 renal
  TGI: > 100 µM
EKVX NSCLC
  TGI: > 100 µM
SNB-19 CNS
  TGI: > 100 µM
HOP-92 NSCLC
  TGI: > 100 µM
SNB-78 CNS
  TGI: > 100 µM
SK-OV-3 ovarian
  TGI: > 100 µM
786-0 renal
  TGI: > 100 µM
SF-539 CNS
  TGI: > 100 µM
M19-MEL melanoma
  TGI: > 100 µM
NCI-H460 lung
  TGI: > 100 µM
SF-268 CNS
  TGI: > 100 µM
RPMI-8226 leukemia
  TGI: > 100 µM
DMS 273 small cell lung
  TGI: > 100 µM
KM12 colon
  TGI: > 100 µM
A549 NSCLC
  TGI: > 100 µM
SK-MEL-28 melanoma
  TGI: > 100 µM
SN12C renal
  TGI: > 100 µM
UACC-257 melanoma
  TGI: > 100 µM
SNB-75 CNS
  TGI: > 100 µM
IGROV1 ovarian
  TGI: > 100 µM
HCT-116 colon
  TGI: > 100 µM
OVCAR-3 ovarian
  TGI: > 100 µM
SK-MEL-2 melanoma
  TGI: > 100 µM
HOP-62 NSCLC
  TGI: > 100 µM
